Here are results for eleven molecules from patent US10766869B2, “Triazoles for the treatment of demyelinating dieases” (Vertex Pharmaceuticals Incorporated, priority 2015, dated 2020).

Like-named read-outs stand apart in the source and are kept apart here.

The test system of this experiment is primary rat mixed cortical cells. The experiment can be described thus: In vitro myelination assay (MBP positive myelin strands, fold myelin pixels above background). Format: cell-based. The conditions noted are these: Rattus norvegicus; for fold induction at 1 µM: 1.0 μM compound; for fold induction at 10 µM: 10.0 μM compound. The method, boiled down:
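Fourteen-day treatment of primary P1 rat mixed cortical cultures, re-dosed at days 6 and 10, at 1.0 μM and 10.0 μM. MBP immunofluorescence was imaged at 10× and myelin strands quantified by software, normalised to untreated wells as fold above background.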

Where [1] appears, read: read-out: Fold myelin pixels above background relative to baseline of no added compound.
[2] abbreviates: relative to baseline of no added compound, read-out: Fold myelin pixels above background, 1.0 μM.
Where [3] appears, read: relative to baseline of no added compound, read-out: Fold myelin pixels above background, 10.0 μM.
[4] abbreviates: relative to baseline of no added compound, read-out: Fold myelin pixels above background.

Consider `[2H]C1([2H])N(C(=O)C2CC2)C([2H])([2H])C([2H])([2H])N(c2cc(Nc3ncn(-c4cc(F)cc(F)c4)n3)cc(C(F)(F)F)c2)C1([2H])[2H]` [Compound 883, cyclopropyl-[2,2,3,3,5,5,6,6-octadeuterio-4-[3-[[1-(3,5-difluorophenyl)-1,2,4-triazol-3-yl]amino]-5-(trifluoromethyl)phenyl]piperazin-1-yl]methanone], for which, under setting [1], the fold induction at 1 µM lay within 10 to 100 and the fold induction at 10 µM lay in the range of 1 to 10.

For the molecule `Cc1cc(Nc2ncn(-c3cc(F)cc(F)c3)n2)cc(N2CCN(CC(=O)O)CC2)c1` [Compound 125, 2-[4-[3-[[1-(3,5-difluorophenyl)-1,2,4-triazol-3-yl]amino]-5-methyl-phenyl]piperazin-1-yl]acetic acid], the fold induction at 1 µM under setting [2] lay within 10 to 100. Moreover, under setting [3], the fold induction at 10 µM is 1 to 10.

As for `Cc1cc(CN2CCN(C3COC3)CC2)c(F)c(Nc2ncn(-c3cc(F)cc(F)c3)n2)c1` [Compound 630, 1-(3,5-difluorophenyl)-N-[2-fluoro-5-methyl-3-[[4-(oxetan-3-yl)piperazin-1-yl]methyl]phenyl]-1,2,4-triazol-3-amine], under setting [4], the fold induction at 1 µM fell in the range of 1 to 10 and the fold induction at 10 µM was in the range of 1 to 10.

`Cc1cc(Nc2ncn(-c3cc(F)cc(F)c3)n2)cc(N2CCOC(CN3CCCC3)C2)c1` (stereo not shown) [Compound 1027, 1-(3,5-difluorophenyl)-N-[3-methyl-5-[2-(pyrrolidin-1-ylmethyl)morpholin-4-yl]phenyl]-1,2,4-triazol-3-amine]: under setting [1], the fold induction at 1 µM was 1 to 10 and the fold induction at 10 µM was no more than 1.

Consider `Fc1cc(F)cc(-n2cnc(Nc3cc(C4CC4)nc(N4CC[C@H](F)C4)c3)n2)c1` [Compound 332, 2-cyclopropyl-N-[1-(3,5-difluorophenyl)-1,2,4-triazol-3-yl]-6-[(3S)-3-fluoropyrrolidin-1-yl]pyridin-4-amine], for which the fold induction at 1 µM under setting [2] was 100 to 1000. Also, the fold induction at 10 µM under setting [3] was in the range of 10 to 100.

`FC(F)c1cc(Nc2ncn(-c3ccccc3)n2)cc(N2CCOCC2)c1` [Compound 392, N-[3-(difluoromethyl)-5-morpholino-phenyl]-1-phenyl-1,2,4-triazol-3-amine]: under setting [4], the fold induction at 1 µM was in the range of 100 to 1000 and the fold induction at 10 µM was 10 to 100.

On to `Fc1cc(F)cc(-n2cnc(Nc3cc(C(F)(F)F)cc(N4CCN(C5CCOC5)CC4)n3)n2)c1` (stereo not shown) [Compound 564, N-[1-(3,5-difluorophenyl)-1,2,4-triazol-3-yl]-6-(4-tetrahydrofuran-3-ylpiperazin-1-yl)-4-(trifluoromethyl)pyridin-2-amine], for which, under setting [4], the fold induction at 1 µM is no more than 1 and the fold induction at 10 µM is no more than 1.

As to `Cc1cc(Nc2ncn(-c3cc(F)cc(F)c3)n2)cc(N2CC(N3C[C@@H](C)O[C@H](C)C3)C2)c1` [Compound 857, 1-(3,5-difluorophenyl)-N-[3-[3-[(2R,6R)-2,6-dimethylmorpholin-4-yl]azetidin-1-yl]-5-methyl-phenyl]-1,2,4-triazol-3-amine], under setting [1], the fold induction at 1 µM is 10 to 100 and the fold induction at 10 µM lay within 10 to 100.

Take `Cc1cc(Nc2ncn(-c3cccc(F)c3)n2)cc(C2CCCN(C3COC3)C2)c1` (stereo not shown) [Compound 411, 1-(3-fluorophenyl)-N-[3-methyl-5-[1-(oxetan-3-yl)-3-piperidyl]phenyl]-1,2,4-triazol-3-amine]: under setting [4], the fold induction at 1 µM lay in the range of 100 to 1000 and the fold induction at 10 µM is no more than 1.

`Cc1cc(Nc2ncn(-c3cc(F)cc(F)c3)n2)cc(N2CCN3C(=O)OCC3C2)c1` (stereo not shown) [Compound 200, 7-[3-[[1-(3,5-difluorophenyl)-1,2,4-triazol-3-yl]amino]-5-methyl-phenyl]-5,6,8,8a-tetrahydro-1H-oxazolo[3,4-a]pyrazin-3-one]: the fold induction at 1 µM under setting [2] lay in the range of 100 to 1000. Further, the fold induction at 10 µM under setting [3] was in the range of 100 to 1000.

`Fc1cc(Nc2ncn(-c3cccc(F)c3)n2)cc(N2CCCOCC2)c1` [Compound 166, N-[3-fluoro-5-(1,4-oxazepan-4-yl)phenyl]-1-(3-fluorophenyl)-1,2,4-triazol-3-amine]: the fold induction at 1 µM under setting [2] lay within 100 to 1000. The fold induction at 10 µM under setting [3] was in the range of 10 to 100.
